From article PMC12524617, “Recombinant Production and Characterization of a Novel α-L-Fucosidase from Bifidobacterium castoris” (International Journal of Molecular Sciences, 2025)

Target: T1, commercial T. maritima α-L-fucosidase (Thermotoga maritima, UniProt Q9WYE2)
T1 construct: gene TM_0306; commercial enzyme from Megazyme
T1 sequence (Q9WYE2 1-449): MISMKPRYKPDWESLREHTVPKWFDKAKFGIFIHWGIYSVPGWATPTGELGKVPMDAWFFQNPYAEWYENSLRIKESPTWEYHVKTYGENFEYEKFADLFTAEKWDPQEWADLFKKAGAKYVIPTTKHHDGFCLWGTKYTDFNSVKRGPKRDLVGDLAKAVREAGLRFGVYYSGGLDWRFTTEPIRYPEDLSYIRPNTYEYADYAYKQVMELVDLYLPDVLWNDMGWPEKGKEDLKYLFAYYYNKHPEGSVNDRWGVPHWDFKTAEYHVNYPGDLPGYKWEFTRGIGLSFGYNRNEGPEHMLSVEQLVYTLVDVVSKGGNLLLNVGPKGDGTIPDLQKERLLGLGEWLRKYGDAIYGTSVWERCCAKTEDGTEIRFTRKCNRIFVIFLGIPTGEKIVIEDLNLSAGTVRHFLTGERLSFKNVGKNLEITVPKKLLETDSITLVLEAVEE
Assay: p-nitrophenolate release, absorbance at […] nm
Format: biochemical
Details: positive control enzyme, 1 μg, same conditions, pH 3.0-8.0, 24-42 °C; activity only in figure

C[C@@H]1O[C@@H](Oc2ccc([N+](=O)[O-])cc2)[C@@H](O)[C@H](O)[C@@H]1O [pNP-Fuc, 4-Nitrophenyl-α-L-fucopyranoside]
p-nitrophenolate release, absorbance at 405 nm: -derived α-L-fucosidase was used as a positive control under the same conditions
